Measurements reported in patent publication US9084828B2, “Oligomer-protein tyrosine kinase inhibitor conjugates” (Nektar Therapeutics, priority 2009, dated 2015).

Key:
Format in all cases: biochemical
[1] = target: T1, PKG1-beta (Homo sapiens, UniProt Q13976); experiment: Activity against various protein tyrosine kinases: PKG1-beta
T1 sequence (Q13976 1-686 isoform Q13976-2): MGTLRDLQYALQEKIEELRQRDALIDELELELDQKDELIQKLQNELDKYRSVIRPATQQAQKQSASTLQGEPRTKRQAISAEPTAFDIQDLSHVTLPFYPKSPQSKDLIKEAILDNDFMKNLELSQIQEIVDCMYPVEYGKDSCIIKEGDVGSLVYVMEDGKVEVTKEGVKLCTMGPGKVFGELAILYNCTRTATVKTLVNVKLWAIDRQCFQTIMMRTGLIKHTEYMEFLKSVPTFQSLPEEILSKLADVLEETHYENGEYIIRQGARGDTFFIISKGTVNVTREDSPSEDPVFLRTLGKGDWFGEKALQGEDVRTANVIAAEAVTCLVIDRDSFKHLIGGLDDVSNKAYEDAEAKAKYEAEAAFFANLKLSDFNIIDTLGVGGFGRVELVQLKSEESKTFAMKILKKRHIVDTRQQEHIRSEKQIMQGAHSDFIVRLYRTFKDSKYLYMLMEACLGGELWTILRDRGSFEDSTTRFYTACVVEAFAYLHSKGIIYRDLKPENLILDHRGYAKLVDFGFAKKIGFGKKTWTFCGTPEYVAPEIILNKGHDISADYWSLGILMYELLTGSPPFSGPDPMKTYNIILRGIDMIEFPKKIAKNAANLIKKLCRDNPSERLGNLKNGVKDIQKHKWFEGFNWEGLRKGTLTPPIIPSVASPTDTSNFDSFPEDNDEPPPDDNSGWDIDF

[2] = target: MAPKAPK2 (Homo sapiens, UniProt P49137); experiment: Activity against various protein tyrosine kinases: MAPKAPK2
[3] = target: T2, Flt3(D835Y) (Homo sapiens, UniProt P36888, D835Y); experiment: Activity against various protein tyrosine kinases: Flt3(D835Y)
T2 sequence (P36888 27-993 D835Y): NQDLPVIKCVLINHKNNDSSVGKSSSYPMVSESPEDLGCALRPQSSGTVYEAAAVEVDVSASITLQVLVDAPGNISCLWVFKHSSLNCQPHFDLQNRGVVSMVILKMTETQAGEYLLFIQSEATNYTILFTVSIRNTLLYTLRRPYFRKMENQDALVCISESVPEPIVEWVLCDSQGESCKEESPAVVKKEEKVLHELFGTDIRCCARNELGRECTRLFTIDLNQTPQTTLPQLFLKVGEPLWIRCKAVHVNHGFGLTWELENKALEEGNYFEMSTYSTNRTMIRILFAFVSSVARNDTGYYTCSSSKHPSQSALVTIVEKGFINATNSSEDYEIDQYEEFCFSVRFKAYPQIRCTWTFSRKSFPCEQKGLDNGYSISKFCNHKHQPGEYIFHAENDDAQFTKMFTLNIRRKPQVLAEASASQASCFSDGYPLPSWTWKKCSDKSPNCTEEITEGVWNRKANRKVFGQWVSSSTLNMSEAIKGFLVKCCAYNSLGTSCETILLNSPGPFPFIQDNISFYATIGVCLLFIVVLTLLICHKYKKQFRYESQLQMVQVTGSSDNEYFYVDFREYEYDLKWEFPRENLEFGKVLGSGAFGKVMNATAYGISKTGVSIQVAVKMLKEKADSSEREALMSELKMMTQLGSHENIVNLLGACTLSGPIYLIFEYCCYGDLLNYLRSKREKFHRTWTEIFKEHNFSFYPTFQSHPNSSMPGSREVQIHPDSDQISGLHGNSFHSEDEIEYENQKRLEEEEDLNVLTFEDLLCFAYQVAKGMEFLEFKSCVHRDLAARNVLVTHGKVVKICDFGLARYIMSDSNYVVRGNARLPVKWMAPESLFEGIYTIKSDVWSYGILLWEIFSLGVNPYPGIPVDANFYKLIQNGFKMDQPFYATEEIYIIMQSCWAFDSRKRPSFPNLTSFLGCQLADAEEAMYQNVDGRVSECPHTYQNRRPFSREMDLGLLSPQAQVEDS
Method: (§1) Using techniques know those of ordinary skill in the art, compounds were tested for activity against various protein tyrosine kinases.

[4] = target: ABL(T315I) (Homo sapiens, UniProt P00519, T315I); experiment: Activity against various protein tyrosine kinases: ABL(T315I)
Method: as §1

[5] = target: ABL (Homo sapiens, UniProt P00519); experiment: Activity against various protein tyrosine kinases: ABL; set-up: purchased MILLIPORE 14-529
Method: as §1

[6] = target: T3, AurC (Homo sapiens, UniProt Q9UQB9); experiment: Activity against various protein tyrosine kinases: AurC
T3 sequence (Q9UQB9 1-309): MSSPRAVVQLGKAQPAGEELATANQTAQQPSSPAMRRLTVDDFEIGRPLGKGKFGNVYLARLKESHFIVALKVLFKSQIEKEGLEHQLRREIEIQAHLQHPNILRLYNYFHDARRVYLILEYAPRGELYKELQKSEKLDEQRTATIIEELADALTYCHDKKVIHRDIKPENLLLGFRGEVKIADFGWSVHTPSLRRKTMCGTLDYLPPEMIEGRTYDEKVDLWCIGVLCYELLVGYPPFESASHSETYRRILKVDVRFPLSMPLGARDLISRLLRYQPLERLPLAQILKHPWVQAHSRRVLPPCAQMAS

[7] = target: T4, PKCz (Homo sapiens, UniProt Q05513); experiment: Activity against various protein tyrosine kinases: PKCz
T4 sequence (Q05513 1-592): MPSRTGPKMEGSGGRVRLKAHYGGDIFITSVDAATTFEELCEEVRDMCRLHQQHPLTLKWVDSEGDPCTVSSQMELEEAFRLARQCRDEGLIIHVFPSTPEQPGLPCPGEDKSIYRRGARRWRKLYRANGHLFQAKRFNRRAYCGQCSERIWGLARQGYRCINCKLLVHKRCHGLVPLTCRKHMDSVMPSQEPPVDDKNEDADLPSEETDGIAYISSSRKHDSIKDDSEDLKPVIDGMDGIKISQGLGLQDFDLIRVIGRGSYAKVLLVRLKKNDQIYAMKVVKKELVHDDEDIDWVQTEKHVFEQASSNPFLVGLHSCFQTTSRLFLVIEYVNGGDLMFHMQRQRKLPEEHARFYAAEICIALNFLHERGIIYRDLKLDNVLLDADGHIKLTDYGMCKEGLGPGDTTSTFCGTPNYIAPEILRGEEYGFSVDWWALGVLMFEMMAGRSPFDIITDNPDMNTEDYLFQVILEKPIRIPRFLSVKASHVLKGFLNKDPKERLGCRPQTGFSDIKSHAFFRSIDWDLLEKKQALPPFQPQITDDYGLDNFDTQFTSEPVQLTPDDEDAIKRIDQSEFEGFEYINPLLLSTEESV

Chain of MAPKAPK2 (P49137 whole entry, species assumed): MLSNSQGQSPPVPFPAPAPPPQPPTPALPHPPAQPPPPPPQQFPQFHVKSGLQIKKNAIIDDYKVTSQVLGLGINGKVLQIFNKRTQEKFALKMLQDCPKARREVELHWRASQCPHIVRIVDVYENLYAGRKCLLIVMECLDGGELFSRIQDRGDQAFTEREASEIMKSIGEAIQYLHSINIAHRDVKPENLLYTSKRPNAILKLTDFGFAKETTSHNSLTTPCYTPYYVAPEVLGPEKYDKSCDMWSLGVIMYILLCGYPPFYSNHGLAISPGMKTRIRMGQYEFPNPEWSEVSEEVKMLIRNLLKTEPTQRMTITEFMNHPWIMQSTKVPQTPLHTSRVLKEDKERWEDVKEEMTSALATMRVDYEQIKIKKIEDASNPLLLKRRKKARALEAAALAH

Row | SMILES | % Inhibition at 10 nM [1] [%] | % Inhibition at 1 μM [1] [%] | % Inhibition at 10 nM [2] [%] | % Inhibition at 1 μM [2] [%] | % Inhibition at 10 nM [3] [%] | % Inhibition at 1 μM [3] [%] | % Inhibition at 10 nM [4] [%] | % Inhibition at 1 μM [4] [%] | % Inhibition at 10 nM [5] [%] | % Inhibition at 1 μM [5] [%] | % Inhibition at 10 nM [6] [%] | % Inhibition at 1 μM [6] [%] | % Inhibition at 10 nM [7] [%] | % Inhibition at 1 μM [7] [%]
1 | COCCOCCOCCNC(=O)OCCN1CCN(c2cc(Nc3ncc(C(=O)Nc4c(C)cccc4Cl)s3)nc(C)n2)CC1 [mPEG3-NHCOO-Dasatinib] | −2 | 0 | 1 | −1 | 6 | 10 | 1 | 36 | 99 | 99 | −1 | 0 | −12 | −13
2 | COCCOCCOCCOCCOCCOCCOCCNC(=O)OCCN1CCN(c2cc(Nc3ncc(C(=O)Nc4c(C)cccc4Cl)s3)nc(C)n2)CC1 [mPEG7-NHCOO-Dasatinib] | −3 | −3 | 3 | 7 | 3 | 7 | 4 | 26 | 99 | 99 | 0 | 2 | 5 | −9
